Measured values: ChEMBL document CHEMBL1201862, “PubChem BioAssay data set” (2004)
Activity calls are given as the source filed them.

What was measured:
[1] = target: T1, Runt-related transcription factor 1/Core-binding factor subunit beta (Homo sapiens, UniProt Q01196+Q13951); assay: inhibitors of RUNX1 Runt–CBFb-SMMHC binding, biochemical, TR-FRET (AID 1438); type: protein assay
[2] = target: T1, Runt-related transcription factor 1/Core-binding factor subunit beta; assay: inhibitors of RUNX1 Runt–CBFb-SMMHC binding, primary screen, biochemical, FRET, Cerulean-Runt, Venus-CBFb-SMMHC, uHTS (AID 1434); type: protein assay;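 note: partner is the CBFb-SMMHC leukemia fusion protein rather than wild-type CBFb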
[3] = target: Trypsin (Sus scrofa, UniProt P00761); assay: porcine trypsin inhibitors, dose response, selectivity assay for Rce1 protease inhibitor project, biochemical, quenched peptide fluorescence, cherry-pick (AID 488789)
Trypsin, sequence (P00761 whole entry): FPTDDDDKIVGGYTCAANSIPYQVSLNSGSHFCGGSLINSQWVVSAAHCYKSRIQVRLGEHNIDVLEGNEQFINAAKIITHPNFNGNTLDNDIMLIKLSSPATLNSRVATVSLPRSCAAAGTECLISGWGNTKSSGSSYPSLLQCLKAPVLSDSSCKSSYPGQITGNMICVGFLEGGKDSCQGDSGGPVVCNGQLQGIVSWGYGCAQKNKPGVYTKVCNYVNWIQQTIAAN

[4] = target: CAAX prenyl protease 2 (Homo sapiens, UniProt Q9Y256); assay: human Rce1 protease inhibitors, dose response, biochemical, yeast membranes, quenched-peptide fluorescence, cherry-pick (AID 588849)
CAAX prenyl protease 2, sequence (Q9Y256 whole entry): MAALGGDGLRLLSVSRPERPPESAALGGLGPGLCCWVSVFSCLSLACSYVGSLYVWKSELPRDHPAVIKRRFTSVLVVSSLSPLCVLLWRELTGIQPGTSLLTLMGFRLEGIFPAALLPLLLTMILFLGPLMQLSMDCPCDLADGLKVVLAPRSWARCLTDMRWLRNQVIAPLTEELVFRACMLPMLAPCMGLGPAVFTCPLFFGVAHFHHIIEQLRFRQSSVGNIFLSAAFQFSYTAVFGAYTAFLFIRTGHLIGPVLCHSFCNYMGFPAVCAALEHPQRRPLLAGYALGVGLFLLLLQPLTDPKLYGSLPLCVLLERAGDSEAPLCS

[5] = target: Dual specificity tyrosine-phosphorylation-regulated kinase 1A (Rattus norvegicus, UniProt Q63470); type: biochemical, Homo sapiens
[6] = target: T2, Hexokinase HKDC1 (Homo sapiens, UniProt Q2TB90); assay: HKDC1 hexokinase inhibitors, SAR follow-up, biochemical, set 2 (AID 588355); type: functional
T2 sequence (Q2TB90 whole entry): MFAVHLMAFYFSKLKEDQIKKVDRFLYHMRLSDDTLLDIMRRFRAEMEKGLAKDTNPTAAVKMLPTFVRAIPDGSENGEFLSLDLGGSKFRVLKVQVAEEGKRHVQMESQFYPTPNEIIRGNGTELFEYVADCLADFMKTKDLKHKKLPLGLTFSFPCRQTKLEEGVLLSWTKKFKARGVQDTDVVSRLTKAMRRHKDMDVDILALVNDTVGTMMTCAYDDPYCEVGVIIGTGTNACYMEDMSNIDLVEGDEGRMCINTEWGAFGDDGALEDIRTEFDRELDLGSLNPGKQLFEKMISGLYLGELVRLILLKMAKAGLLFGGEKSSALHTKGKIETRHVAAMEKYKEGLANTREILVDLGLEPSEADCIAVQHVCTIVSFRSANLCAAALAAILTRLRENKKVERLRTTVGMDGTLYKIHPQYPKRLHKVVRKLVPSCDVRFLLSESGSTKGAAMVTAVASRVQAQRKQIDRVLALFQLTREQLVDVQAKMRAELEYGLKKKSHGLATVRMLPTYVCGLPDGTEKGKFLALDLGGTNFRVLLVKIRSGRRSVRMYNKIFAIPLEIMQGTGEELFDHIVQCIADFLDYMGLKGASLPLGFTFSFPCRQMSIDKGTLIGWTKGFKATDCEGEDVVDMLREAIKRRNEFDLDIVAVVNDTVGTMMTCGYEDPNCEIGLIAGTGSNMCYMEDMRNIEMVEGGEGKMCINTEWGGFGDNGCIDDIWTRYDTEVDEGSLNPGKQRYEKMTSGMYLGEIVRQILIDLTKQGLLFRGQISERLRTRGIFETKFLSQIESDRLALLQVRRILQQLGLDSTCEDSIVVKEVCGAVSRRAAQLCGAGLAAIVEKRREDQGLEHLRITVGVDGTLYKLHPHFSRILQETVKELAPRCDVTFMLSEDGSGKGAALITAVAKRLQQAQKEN

[7] = target: T3, Hexokinase-1 (Homo sapiens, UniProt P19367); assay: HK1 enzyme inhibition by HKDC1 hits, SAR follow-up, selectivity assay for HKDC1 inhibitor project, biochemical, set 2, resazurin fluorescence coupled readout (AID 588356); type: functional
T3 sequence (P19367 whole entry): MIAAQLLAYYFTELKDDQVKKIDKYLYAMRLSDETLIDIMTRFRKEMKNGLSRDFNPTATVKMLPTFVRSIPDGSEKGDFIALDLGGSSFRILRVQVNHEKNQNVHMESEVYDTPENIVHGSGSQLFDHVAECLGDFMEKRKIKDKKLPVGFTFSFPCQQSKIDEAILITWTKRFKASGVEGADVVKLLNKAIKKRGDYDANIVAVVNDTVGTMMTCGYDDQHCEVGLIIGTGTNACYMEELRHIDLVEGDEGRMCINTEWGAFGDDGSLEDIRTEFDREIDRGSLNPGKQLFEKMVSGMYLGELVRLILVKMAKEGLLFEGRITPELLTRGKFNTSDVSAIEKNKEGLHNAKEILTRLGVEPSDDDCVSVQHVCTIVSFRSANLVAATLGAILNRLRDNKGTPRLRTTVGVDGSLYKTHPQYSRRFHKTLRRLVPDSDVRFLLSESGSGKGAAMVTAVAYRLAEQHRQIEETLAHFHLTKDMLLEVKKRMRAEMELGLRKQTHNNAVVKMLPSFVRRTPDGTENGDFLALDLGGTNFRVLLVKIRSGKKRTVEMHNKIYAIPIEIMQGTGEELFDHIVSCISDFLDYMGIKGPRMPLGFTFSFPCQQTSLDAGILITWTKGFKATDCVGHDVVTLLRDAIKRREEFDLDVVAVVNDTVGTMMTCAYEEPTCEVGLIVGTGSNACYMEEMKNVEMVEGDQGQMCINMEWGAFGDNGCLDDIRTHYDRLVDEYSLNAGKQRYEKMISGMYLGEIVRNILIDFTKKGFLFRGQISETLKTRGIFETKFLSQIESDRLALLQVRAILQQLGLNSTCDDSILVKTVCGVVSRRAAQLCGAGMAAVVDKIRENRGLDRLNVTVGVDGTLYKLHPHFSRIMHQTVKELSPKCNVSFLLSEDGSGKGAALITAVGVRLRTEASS

[8] = cytotoxicity in HMLE control line with eGFP shRNA, dose response, counter-screen for HMLE_sh_ECad selective toxicity project, cell-based, HMLE_sh_eGFP, luminescence (AID 463074); type: functional, Homo sapiens;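 note: HMLE human mammary epithelial cells expressing control shRNA against eGFP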
[9] = test system: INS1; assay: beta cell apoptosis inhibitors, cytokine rescue, dose response, luminescence, retest (AID 449756); type: functional, cell-based; settings: Rattus norvegicus, INS1;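 note: cell death triggered by IL-1 beta plus TNF-alpha plus IFN-gamma mixture; protective hits raise ATP signal compared with cytokine alone wells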
[10] = target: Protein Wnt-3a (Mus musculus, UniProt P27467); assay: Wnt3a-driven reporter signaling inhibition, dose response, selectivity assay for Gli-SUFU antagonist project, Wnt-LIGHT cells, luminescence (AID 651570); type: functional; settings: read-out: IC50_Mean;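 note: Wnt-LIGHT reporter cells stimulated with conditioned medium from Wnt3a-producing cells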
Protein Wnt-3a, sequence (P27467 whole entry): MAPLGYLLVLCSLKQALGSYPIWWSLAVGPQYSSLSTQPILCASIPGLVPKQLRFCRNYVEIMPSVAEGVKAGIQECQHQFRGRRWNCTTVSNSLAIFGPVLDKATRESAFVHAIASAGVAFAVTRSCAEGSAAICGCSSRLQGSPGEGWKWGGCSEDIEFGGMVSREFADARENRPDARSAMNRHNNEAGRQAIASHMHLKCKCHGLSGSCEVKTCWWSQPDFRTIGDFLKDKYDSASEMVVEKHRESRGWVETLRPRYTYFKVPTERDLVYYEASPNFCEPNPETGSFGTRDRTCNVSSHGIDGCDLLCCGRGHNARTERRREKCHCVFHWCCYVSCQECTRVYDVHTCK

[11] = cells; type: functional, cell-based; settings: HEK-CNG
[12] = target: T4, Galanin receptor type 3 (Homo sapiens, UniProt O60755); assay: Fluorescence-based cell-based primary high throughput dose response assay to identify antagonists of the Galanin Receptor 3 (GalR3).; type: functional
T4 sequence (O60755 whole entry): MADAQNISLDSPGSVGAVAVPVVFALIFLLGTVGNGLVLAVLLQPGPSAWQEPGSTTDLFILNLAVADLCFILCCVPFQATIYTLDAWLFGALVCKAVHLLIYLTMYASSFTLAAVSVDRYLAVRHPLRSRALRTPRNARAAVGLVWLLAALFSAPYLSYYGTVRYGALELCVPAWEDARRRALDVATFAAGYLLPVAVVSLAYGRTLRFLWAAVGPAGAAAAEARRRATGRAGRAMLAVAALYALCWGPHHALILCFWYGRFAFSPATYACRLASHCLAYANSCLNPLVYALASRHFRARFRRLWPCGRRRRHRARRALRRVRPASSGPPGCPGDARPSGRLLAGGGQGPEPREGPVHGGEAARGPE

[13] = target: Galanin receptor type 2 (Homo sapiens, UniProt O43603); assay: Dose Response cell-based high-throughput screening assay to identify antagonists of galanin receptor 2 (GALR2). [Related pubchem assays: 828, 866 ]; type: functional
Galanin receptor type 2, sequence (O43603 whole entry): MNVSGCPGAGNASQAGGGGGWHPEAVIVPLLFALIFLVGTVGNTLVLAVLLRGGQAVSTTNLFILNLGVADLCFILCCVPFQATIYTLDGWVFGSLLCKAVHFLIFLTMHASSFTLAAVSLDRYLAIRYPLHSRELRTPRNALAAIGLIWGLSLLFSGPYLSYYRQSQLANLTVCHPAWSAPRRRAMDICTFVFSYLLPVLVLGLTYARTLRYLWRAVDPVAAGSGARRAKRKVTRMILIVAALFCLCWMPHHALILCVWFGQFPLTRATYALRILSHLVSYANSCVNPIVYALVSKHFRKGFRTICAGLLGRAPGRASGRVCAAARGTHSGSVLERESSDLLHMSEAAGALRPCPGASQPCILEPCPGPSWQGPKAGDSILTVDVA

[14] = Luminescence Cell-Based Dose Retest to Confirm Inhibitors of Cancer Stem Cells. [Related pubchem assays (depositor defined):AID2717, AID2721]; type: functional; settings: Homo sapiens
[15] = test system: NIH3T3; assay: cytotoxicity in NIH-3T3 fibroblasts, dose response, cytotoxicity control for antifungal drug resistance project, cell-based, Alamar Blue, fluconazole, dry powder (AID 488809); type: functional; settings: Mus musculus
[16] = target: Voltage-gated inwardly rectifying potassium channel KCNH2 (Homo sapiens, UniProt Q12809); settings: Potency;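 note: confirmatory quantitative high-throughput screen measuring inhibition of hERG channel activity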
Voltage-gated inwardly rectifying potassium channel KCNH2, sequence (Q12809 whole entry): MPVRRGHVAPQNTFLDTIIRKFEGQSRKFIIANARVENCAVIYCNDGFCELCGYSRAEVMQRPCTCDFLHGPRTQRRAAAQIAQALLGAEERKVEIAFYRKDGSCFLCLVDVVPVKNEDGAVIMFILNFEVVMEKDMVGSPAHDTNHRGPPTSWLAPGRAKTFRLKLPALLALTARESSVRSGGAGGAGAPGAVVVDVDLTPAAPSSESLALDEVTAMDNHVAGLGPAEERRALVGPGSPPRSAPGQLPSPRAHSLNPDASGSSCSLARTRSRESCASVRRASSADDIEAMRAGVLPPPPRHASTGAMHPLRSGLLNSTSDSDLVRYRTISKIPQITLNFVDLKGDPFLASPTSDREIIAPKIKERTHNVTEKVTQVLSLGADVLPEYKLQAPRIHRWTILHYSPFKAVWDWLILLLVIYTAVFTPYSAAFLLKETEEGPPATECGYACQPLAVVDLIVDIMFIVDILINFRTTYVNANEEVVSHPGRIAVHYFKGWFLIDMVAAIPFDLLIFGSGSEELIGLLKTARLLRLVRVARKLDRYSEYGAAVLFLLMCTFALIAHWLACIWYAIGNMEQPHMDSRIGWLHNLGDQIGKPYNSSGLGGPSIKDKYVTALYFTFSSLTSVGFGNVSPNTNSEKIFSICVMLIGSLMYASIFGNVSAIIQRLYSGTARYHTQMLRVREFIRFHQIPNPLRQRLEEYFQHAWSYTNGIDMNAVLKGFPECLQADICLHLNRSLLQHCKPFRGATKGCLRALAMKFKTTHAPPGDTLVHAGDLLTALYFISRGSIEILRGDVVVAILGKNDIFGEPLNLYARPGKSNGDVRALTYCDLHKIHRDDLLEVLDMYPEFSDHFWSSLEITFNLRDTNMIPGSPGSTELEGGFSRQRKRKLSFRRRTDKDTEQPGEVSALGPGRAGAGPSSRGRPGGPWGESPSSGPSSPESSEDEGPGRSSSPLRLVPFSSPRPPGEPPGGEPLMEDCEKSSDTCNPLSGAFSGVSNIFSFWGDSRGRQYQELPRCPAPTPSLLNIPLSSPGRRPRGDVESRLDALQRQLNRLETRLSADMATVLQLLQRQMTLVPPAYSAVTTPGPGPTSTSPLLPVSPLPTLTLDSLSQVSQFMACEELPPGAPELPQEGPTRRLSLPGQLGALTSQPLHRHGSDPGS

[17] = target: Cytochrome P450 3A4 (Homo sapiens, UniProt P08684);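 note: CYP3A4 tested as one member of a cytochrome P450 panel screen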
Cytochrome P450 3A4, sequence (P08684 whole entry): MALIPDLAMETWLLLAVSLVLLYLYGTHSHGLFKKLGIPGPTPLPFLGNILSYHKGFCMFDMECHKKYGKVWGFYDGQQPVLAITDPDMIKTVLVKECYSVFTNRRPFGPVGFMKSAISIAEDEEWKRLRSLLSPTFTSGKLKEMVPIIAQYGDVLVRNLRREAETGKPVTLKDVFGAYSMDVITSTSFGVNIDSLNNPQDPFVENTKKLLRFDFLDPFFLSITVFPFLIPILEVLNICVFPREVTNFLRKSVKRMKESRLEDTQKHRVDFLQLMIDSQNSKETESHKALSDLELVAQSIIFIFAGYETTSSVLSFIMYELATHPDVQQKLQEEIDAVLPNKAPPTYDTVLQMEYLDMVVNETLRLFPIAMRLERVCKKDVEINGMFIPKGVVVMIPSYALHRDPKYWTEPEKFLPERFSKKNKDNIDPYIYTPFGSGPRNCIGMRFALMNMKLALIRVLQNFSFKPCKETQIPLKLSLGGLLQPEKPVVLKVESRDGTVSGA

[18] = target: Dual specificity protein kinase CLK1 (Homo sapiens, UniProt P49759); assay: CLK1 kinase inhibitors, off-target check, dose response, selectivity assay for Dyrk1A inhibitor project, biochemical, cherry-picked samples (AID 588811)
Dual specificity protein kinase CLK1, sequence (P49759 whole entry): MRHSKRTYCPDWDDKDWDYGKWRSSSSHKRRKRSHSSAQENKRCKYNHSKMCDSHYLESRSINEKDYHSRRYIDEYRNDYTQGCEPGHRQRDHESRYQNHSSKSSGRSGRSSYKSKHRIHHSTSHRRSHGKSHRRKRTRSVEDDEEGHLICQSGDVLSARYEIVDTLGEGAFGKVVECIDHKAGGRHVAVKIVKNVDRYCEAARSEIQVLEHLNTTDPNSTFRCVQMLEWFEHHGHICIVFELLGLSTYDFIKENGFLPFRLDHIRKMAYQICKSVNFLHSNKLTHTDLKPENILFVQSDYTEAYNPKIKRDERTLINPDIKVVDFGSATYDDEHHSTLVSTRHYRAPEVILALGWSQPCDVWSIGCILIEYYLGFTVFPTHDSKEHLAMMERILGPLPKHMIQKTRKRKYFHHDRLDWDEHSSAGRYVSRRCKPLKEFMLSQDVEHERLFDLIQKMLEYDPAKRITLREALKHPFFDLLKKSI

[19] = target: Cytochrome P450 2C9 (Homo sapiens, UniProt P11712)
Cytochrome P450 2C9, sequence (P11712 whole entry): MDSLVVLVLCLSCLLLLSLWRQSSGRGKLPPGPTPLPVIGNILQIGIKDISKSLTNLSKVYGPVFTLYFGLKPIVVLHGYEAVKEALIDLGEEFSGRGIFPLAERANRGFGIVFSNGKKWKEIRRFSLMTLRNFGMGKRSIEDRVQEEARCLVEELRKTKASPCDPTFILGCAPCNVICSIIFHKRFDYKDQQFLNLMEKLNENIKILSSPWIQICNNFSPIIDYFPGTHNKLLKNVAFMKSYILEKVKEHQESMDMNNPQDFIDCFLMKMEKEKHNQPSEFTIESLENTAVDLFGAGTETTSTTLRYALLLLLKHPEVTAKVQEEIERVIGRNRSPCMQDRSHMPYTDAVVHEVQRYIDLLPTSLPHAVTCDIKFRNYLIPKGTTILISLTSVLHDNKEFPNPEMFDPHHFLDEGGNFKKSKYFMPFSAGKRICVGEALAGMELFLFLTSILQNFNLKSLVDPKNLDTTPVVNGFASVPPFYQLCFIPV

[20] = target: Cytochrome P450 2C19 (Homo sapiens, UniProt P33261); assay: Cytochrome panel assay with activity outcomes. Panel member name: p450-cyp2c19 Compounds with AC50 equal or less than 10 uM are considered active; type: functional; settings: read-out: AC50
[21] = target: Nucleotide-binding oligomerization domain-containing protein 1 (Homo sapiens, UniProt Q9Y239); assay: NOD1 signaling inhibitors, SAR follow-up, revised (AID 2333); type: functional
[22] = test system: HEK293; assay: cells; type: functional, cell-based; settings: Homo sapiens
[23] = test system: HEK293; assay: NOD1 signaling inhibitors, primary screen, cell-based, luminescence, uHTS (AID 1578); type: functional; settings: Homo sapiens
[24] = test system: HEK293; assay: NOD2 signaling inhibitors in MDP-stimulated cells, cell-based, uHTS, luminescence (AID 2001); type: functional; settings: Homo sapiens
[25] = test system: HEK293; assay: cells; type: functional, cell-based; settings: Homo sapiens; remark: listed apart in the source
[26] = target: T5, COUP transcription factor 2 (Homo sapiens, UniProt P24468); assay: Luminescence-based cell-based high throughput dose response assay to identify inhibitors of COUP-TFII (NR2F2).; type: functional;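 note: HEK293 cells transiently cotransfected with COUP-TFII expression vector and reporter; luciferase reporter luminescence driven by COUP-TFII from the pX2-168 reporter plasmid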
T5 sequence (P24468 whole entry): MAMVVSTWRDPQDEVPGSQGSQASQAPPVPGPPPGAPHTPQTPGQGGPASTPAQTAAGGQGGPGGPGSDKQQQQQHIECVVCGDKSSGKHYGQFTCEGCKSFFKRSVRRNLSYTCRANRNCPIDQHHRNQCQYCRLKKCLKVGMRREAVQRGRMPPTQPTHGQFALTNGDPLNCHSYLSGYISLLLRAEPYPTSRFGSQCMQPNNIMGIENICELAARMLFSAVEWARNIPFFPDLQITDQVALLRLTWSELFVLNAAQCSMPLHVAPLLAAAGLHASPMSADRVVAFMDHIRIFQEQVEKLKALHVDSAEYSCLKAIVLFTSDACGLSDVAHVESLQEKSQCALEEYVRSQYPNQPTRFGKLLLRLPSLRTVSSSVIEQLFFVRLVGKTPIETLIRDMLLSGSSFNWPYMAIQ

[27] = target: Tumor necrosis factor (Homo sapiens, UniProt P01375); assay: TNFa-triggered NF-kB activation inhibitors, SAR follow-up, cell-based, revised (AID 2337); type: functional
Tumor necrosis factor, sequence (P01375 whole entry): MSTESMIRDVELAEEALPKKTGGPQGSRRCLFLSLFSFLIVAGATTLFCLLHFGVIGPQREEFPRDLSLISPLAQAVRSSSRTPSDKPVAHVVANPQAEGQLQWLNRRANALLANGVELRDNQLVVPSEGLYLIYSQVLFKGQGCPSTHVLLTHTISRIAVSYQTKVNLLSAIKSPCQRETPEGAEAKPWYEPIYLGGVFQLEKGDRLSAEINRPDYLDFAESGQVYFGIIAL

[28] = test system: HEK293; assay: cells; settings: Homo sapiens
[29] = Luminescent dose response cell-based high throughput screening assay for inhibitors of the Janus kinase 2 mutant JAK2V617F. [Related pubchem assays: 1446 (Primary screen.), 1521 (Confirmation assay.), 1486 (Counter screen.)]; type: functional
[30] = test system: Vero; assay: cells; type: functional; settings: Chlorocebus sabaeus
[31] = test system: Vero; assay: cells; type: functional, cell-based; settings: Chlorocebus sabaeus

T1 sequence (Q01196 whole entry, the tested form may be a part): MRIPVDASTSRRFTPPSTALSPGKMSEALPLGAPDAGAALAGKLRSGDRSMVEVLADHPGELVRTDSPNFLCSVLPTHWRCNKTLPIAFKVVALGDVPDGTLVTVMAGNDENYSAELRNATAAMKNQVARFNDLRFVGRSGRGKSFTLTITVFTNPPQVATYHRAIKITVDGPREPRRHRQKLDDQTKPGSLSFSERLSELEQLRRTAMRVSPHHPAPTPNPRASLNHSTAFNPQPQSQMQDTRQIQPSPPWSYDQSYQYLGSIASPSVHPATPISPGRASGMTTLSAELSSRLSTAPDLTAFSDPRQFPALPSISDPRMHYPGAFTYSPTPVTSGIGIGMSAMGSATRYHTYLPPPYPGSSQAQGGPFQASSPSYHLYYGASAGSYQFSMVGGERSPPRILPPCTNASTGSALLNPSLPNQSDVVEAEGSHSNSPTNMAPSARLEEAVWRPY
T1 sequence (Q13951 whole entry, the tested form may be a part): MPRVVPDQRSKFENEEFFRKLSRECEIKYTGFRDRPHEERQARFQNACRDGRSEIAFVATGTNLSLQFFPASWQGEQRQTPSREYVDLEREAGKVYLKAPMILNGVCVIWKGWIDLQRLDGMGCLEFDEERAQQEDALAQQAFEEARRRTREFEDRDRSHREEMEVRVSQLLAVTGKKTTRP

Cc1ccc(S(=O)(=O)Oc2ccc(C3C4=C(CCCC4=O)N(CCC(=O)O)C4=C3C(=O)CCC4)cc2Cl)cc1
IC50 [1]: 14.6 µM (active) | IC50 [2]: 0.393 µM (active) | AC50 [3]: 6.27 µM (active) | AC50 [4]: 11.4 µM (active)

COc1ccc2c(c1)CCc1sc(NC(=O)c3ccco3)nc1-2
AC50 [5]: 2.01 µM (active)

Cc1ccc(N2C(=O)c3cccnc3C2Nc2ccc(C)c(C)c2)cc1 (stereo unspecified)
IC50 [6]: > 80 µM (inactive) | IC50 [7]: > 80 µM (inactive)

CCCCOc1[nH]cnc2c3cc(F)ccc3nc1-2
AC50 [8]: 52.7 µM (active) | AC50 [9]: 4.34 µM (active) | IC50 [10]: 1.56 µM (active) | EC50 [11]: > 29.9 µM (inactive) | IC50 [12]: 2.19 µM (active) | IC50 [13]: 472 µM (not active) | AC50 [14]: > 195 µM (inactive)

O=C(c1ccc(Cl)cc1)N1CCN(c2cc(C(F)(F)F)nc3ccccc23)CC1
AC50 [15]: 23.2 µM (active)

O=S(=O)(O)C1CCNCC1
AC50 [16]: 22.4 µM (inconclusive) | AC50 [17]: inconclusive

c1cncc(CNc2cc(-c3ccc4c(c3)OCO4)ncn2)c1
AC50 [18]: 5.2 µM (active) | AC50 [19]: 0.316 µM (inconclusive) | AC50 [20]: 25.1 µM (inconclusive)

CSc1ccccc1OCc1cc(C(=O)N2CCC(c3ccncc3)CC2)no1
IC50 [21]: 3.18 µM (active) | IC50 [22]: 8.95 µM (active) | EC50 [23]: 2.09 µM (active) | IC50 [24]: 5.04 µM (active) | IC50 [25]: 3.97 µM (active) | IC50 [26]: 10.3 µM (inactive) | IC50 [27]: 3.22 µM (active) | IC50 [28]: > 20 µM (inactive)

COc1cc(/C=C2\COC/C(=C\c3ccc(O)c(OC)c3)C2=O)ccc1O
IC50 [29]: 1.15 µM (active) | CC50 [30]: 5.27 µM (active) | IC50 [31]: > 25 µM (active)
